Laboratory results taken from patent publication US10865191B2, “Heterocyclic compounds useful as modulators of TNF alpha” (BRISTOL-MYERS SQUIBB COMPANY, priority 2015, dated 2020).
Each block holds one compound with its values, some of them ahead of it.

Biological target: TNFα (Homo sapiens, UniProt P01375)
Test: TNF induced HEK-Blue assay (NF-kB-driven secreted alkaline phosphatase reporter)
Format: cell-based
Conditions: TNFα 0.5 ng/mL, HEK-Blue-CD40L cells, 18 h; read-out: TNF induced HEK-Blue assay IC50 value
How it was run: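 HEK-Blue-CD40L cells (NF-kB-driven SEAP reporter), 20,000/well, added after 30 min pre-incubation of compound (0.004–25 μM final) with TNFα 0.5 ng/mL final at 37 °C; 18 h incubation. SEAP read with QUANTI-Blue at 620 nm; IC50 from 4-parameter logistic fit, normalized to unstimulated and stimulated DMSO controls.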

Sequence of TNFα (P01375 77-233 limits assumed): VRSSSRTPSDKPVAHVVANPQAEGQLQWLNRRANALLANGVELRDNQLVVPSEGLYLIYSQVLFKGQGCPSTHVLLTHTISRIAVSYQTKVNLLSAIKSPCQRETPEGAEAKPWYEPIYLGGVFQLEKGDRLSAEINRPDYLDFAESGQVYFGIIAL

SMILES: CC(=O)NC(C)(C)c1ccc(-c2ccc3ncc(Cl)c(NC(C)c4ccccc4F)c3c2)cc1 (centres unmarked) [Example 592, N-(2-(4-(3-chloro-4-((1-(2-fluorophenyl)ethyl)amino)quinolin-6-yl)phenyl)propan-2-yl)acetamide]
IC50: 1 to 10 µM

SMILES: C[C@@H](Nc1c(Cl)cnc2ccc(-c3cnc(C4CCN(CC(=O)O)CC4)nc3)cc12)c1ccccc1F [Example 593, (R)-2-(4-(5-(3-chloro-4-((1-(2-fluorophenyl)ethyl)amino)quinolin-6-yl)pyrimidin-2-yl)piperidin-1-yl)acetic acid]
IC50: 1 to 10 µM

SMILES: CC(C)(O)c1ncc(-c2cc3c(NC4(c5ccccc5F)CCC4)c(Cl)cnc3cc2F)cn1 [Example 609, 2-(5-(3-chloro-7-fluoro-4-((1-(2-fluorophenyl)cyclobutyl)amino)quinolin-6-yl)pyrimidin-2-yl)propan-2-ol]
IC50: 1 to 10 µM

Results, then the compound that gave them:

IC50: < 1 µM
SMILES: CC(Nc1ncc(-c2ccc3ncc(Cl)c(N[C@H](C)c4ccccc4F)c3c2)cn1)C(N)=O (stereo partly drawn) [Example 591, 2-((5-(3-chloro-4-(((R)-1-(2-fluorophenyl)ethyl)amino)quinolin-6-yl)pyrimidin-2-yl)amino)propanamide]

IC50: < 1 µM
SMILES: C[C@@H](Nc1c(Cl)cnc2cc(F)c(-c3cnc(C4CCN(CC(=O)O)CC4)nc3)cc12)c1ccccc1F [Example 594, (R)-2-(4-(5-(3-chloro-7-fluoro-4-((1-(2-fluorophenyl)ethyl)amino)quinolin-6-yl)pyrimidin-2-yl)piperidin-1-yl)acetic acid]
